According to publication PMC3865801 (Journal of Medicinal Chemistry, 2013):
“Also recorded” adds a separate entry of the source. Where two headings read alike, the source gives them in different places.

Key:
[1] = Aqueous solubility of parent compound and sodium salt
[2] = Maximum tolerated dose (MTD) in C57BL/6 mice; conditions: C57BL/6, mouse, in vivo, ip
Protocol: The MTD was determined by single dose or b.i.d. × 3 intraperitoneal administration through a classical dose escalation design in C57BL/6 mice and defined as a dose level that was tolerated by mice (n = 2–3 mice/group) with a body weight loss of <10% and no death or detectable sickness. […] All animal experiments were approved by the Animal Ethics Committee of the University of Auckland.

[3] = target: T1, recombinant purified mouse perforin (Mus musculus, UniProt P10820); test: Inhibitor binding to immobilized perforin by SPR (Biacore T200); conditions: for Kd: single site specific binding model, read-out: calculated KD; for binding to immobilized perforin by SPR: analyte ≤2.5 μM, 5% DMSO running buffer
T1 sequence (P10820 21-554): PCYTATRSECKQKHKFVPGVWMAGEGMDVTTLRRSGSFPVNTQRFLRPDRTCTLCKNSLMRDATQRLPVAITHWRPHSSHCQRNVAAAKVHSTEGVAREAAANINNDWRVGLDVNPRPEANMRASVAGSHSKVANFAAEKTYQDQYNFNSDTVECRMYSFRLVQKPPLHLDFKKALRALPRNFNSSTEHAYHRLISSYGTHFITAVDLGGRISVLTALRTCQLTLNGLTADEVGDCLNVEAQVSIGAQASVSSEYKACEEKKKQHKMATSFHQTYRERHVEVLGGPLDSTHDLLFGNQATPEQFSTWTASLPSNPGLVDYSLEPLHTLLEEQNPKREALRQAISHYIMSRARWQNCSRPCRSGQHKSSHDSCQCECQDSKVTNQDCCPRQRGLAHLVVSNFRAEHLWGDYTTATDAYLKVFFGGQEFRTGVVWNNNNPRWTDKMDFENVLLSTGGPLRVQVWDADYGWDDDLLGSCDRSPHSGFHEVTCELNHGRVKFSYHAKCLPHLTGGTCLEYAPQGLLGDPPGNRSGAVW
Source text: While several series of potent inhibitors have now been identified,[23]−[26] little is known about the mechanism by which the cytolytic activity of perforin action is blocked. In order to find out more about the nature and degree of inhibitor binding, recombinant purified mouse perforin was immobilized on a surface plasmon resonance (SPR) S-series CM5 sensor chip using standard amide coupling methodology.
Binding experiments with surface immobilized wild-type perforin monomers on a S-series CM5 sensor chip (GE Healthcare Life Sciences) were carried out using a Biacore T200 SPR machine (GE Healthcare Life Sciences). Perforin monomer solution (25 μg/mL in 10 mM sodium acetate, pH 5.5) was injected over the sensor chip surface under standard amide coupling conditions to obtain covalent binding of the protein (density = 4257 RU). The initial and running buffers were made from a 10× stock solution of HEPES buffered saline (HBS). 10× HBS (50 mL) was diluted to 500 mL with water and filtered through a 0.22 μm filter (initial buffer). This initial buffer (380 mL) was added to DMSO (20 mL) to prepare the 5% DMSO running buffer. Stock solutions (2.5 mM) of compound were prepared in 100% DMSO. These solutions were diluted in HEPES initial buffer to 5% DMSO (125 μM) and then subsequently diluted to the required concentrations using HEPES running buffer containing 5% DMSO to maintain a constant DMSO concentration. A solvent correction was run before and after the injections to account for differences in DMSO concentrations between buffer and analyte solutions.

[4] = Solubility in SPR running buffer; format: physicochemical; conditions: HEPES buffered saline running buffer with 5% DMSO; sodium salts, HEPES running buffer containing 5% DMSO
Protocol: Binding experiments with surface immobilized wild-type perforin monomers on a S-series CM5 sensor chip (GE Healthcare Life Sciences) were carried out using a Biacore T200 SPR machine (GE Healthcare Life Sciences). […] The initial and running buffers were made from a 10× stock solution of HEPES buffered saline (HBS). 10× HBS (50 mL) was diluted to 500 mL with water and filtered through a 0.22 μm filter (initial buffer). This initial buffer (380 mL) was added to DMSO (20 mL) to prepare the 5% DMSO running buffer. Stock solutions (2.5 mM) of compound were prepared in 100% DMSO. […] A solvent correction was run before and after the injections to account for differences in DMSO concentrations between buffer and analyte solutions.

[5] = Plasma pharmacokinetics in male CD-1 mice; format: in vivo, mouse; conditions: 5 mg/kg iv; for AUC0–∞ / Cmax / T1/2: plasma
Protocol: Blood was collected by cardiac puncture at 5 and 30 min and 1, 2, 4, and 6 h postdose in ice-cold K2-EDTA tubes. Plasma samples were separated by centrifuging at 4000g for 8 min and stored at −80 °C until analysis. Frozen plasma was thawed on wet ice on the day of analysis. […] A Zorbax SB-C18, 50 mm × 2.1 mm 5 μm column was used at a 0.5 mL/min flow rate, and elution was with a gradient of organic phase (A), acetonitrile in water (80:20 v/v) containing 0.01% formic acid and aqueous phase (B), water containing 0.01% formic acid. LC–MS/MS analysis was carried out using multiple reaction monitoring. […] Plasma samples from 5 min, 30 min, and 1 h were diluted with control mouse plasma (1:20 for 5 min, 1:10 for 30 min and 1 h samples) to fit within this range. The resultant concentration vs time data were fitted (using Phoenix WinNonlin 6.2; Pharsight Corporation, St. Louis, MO) to calculate pharmacokinetic parameters including half-life (T1/2), maximum concentration (Cmax), area under the curve (AUC0–∞), volume of distribution (V), and clearance (Cl).

[6] = intraperitoneal, twice daily over 3 days, read-out: MTD, multiple dosing
[7] = single intraperitoneal dose, mice, read-out: MTD, single dose
[8] = SI Figure 2: 0, 0.25, 1.25 and 2.5 µM
[9] = SI Figure 3: further dilution series 0–2.5 µM

Compound	solubility ([1]; aqueous medium (not further specified)) [µg/mL]	MTD at 96 h [2, 6] [mg/kg]	MTD at 96 h [2, 7] [mg/kg]	calculated Rmax [3, 8] [RU]	Kd [3, 8] [µM]	calculated Rmax [3, 9] [RU]	Kd [3, 9] [µM]	binding to immobilized perforin by SPR [3]	solubility [4] [µM]	Cl (clearance) [5] [mL h^–1 kg^–1]	V (volume of distribution) [5] [L/kg]	AUC0–∞ [5] [ng·h/mL]	Cmax [5] [ng/mL]	T1/2 [5] [h]	solubility [1] [µg/mL]
CC1c2cc(-c3ccc(/C=C4/NC(=S)NC4=O)s3)ccc2C(=O)N1C (stereo not drawn) [compound 135, (E,Z)-2,3-Dimethyl-5-(5-((5-oxo-2-thioxoimidazolidin-4-ylidene)methyl)thiophen-2-yl)isoindolin-1-one]	1.32	60	80	1.23 ± 0.10	1.79 ± 0.55	8.66 ± 2.81	2.39 ± 1.23	saturable binding; also recorded: bind reversibly	≤ 2.5	4346	1.478	1151	4488	1.15	
O=C1NC(=S)N/C1=C/c1ccc(-c2ccc3c(c2)CCNC3=O)s1 [compound 167]		40	60					linear concentration response; also recorded: bind reversibly	≤ 2.5	5237	2.75	955	4513	1.30	0.53
